# Source: PubChem BioAssay (NCI)
#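 Method: 48-hour compound exposure of cells in 96-well plates, five concentrations, linear interpolation of endpoints. GI50: concentration for 50% inhibition of growth. TGI denotes the concentration required for complete inhibition of growth.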
# Key:
# Assay in all cases: NCI tumour cell line growth inhibition, 48 h
# [1] = test system: LXFL 529 NSCLC
# [2] = test system: SK-MEL-2 melanoma
# [3] = test system: NCI-H460 lung
# [4] = test system: HOP-18 NSCLC
# [5] = test system: SF-539 CNS
# [6] = test system: SN12C renal
# [7] = test system: HCT-15 colon
# [8] = test system: SR leukemia
# [9] = test system: SNB-75 CNS
# [10] = test system: DU-145 prostate
Structure (SMILES),TGI [1] [µM],TGI [2] [µM],TGI [3] [µM],TGI [4] [µM],TGI [5] [µM],TGI [6] [µM],TGI [7] [µM],TGI [8] [µM],TGI [9] [µM],GI50 [2] [µM],GI50 [3] [µM],GI50 [10] [nM],TGI [10] [µM],GI50 [5] [nM],GI50 [8] [nM],GI50 [6] [µM],GI50 [9] [nM],GI50 [7] [nM]
CN(C)CCC1(C2=CCCC2)CC/C(=C\c2ccccc2Cl)C1=O (stereo not drawn),23.9,27.6,31,24.8,28.9,26.7,19.4,,,,,,,,,,,
CCCCCCCCCOC(=S)NCCCCC,> 100,,64,> 100,41.3,74,53.9,50.6,> 100,,,,,,,,,
CCOC(=O)c1cc(-c2ccc(OC)c(OC)c2)[nH]c1N/N=C/c1c(Cl)cccc1Cl,,48.6,> 35.9,,5.27,22.3,10.7,1.93,5.94,7.28,1.35,2380,8.5,1440,410,3.64,1850,2380
COC(=O)C(=O)C(C(=O)C=C(C)C)C(=O)C(=O)Nc1nc2ccc([N+](=O)[O-])cc2s1 (stereo not drawn),> 100,> 100,> 100,54.6,> 100,> 100,> 100,,63.7,,,,,,,,,
COc1cc(CC(C(=O)O)C(=O)O)c(OC)cc1CC(C(=O)O)C(=O)O,> 100,,> 100,,> 100,> 100,> 100,> 100,> 100,,,,,,,,,
O=C(Nc1ccc2c(c1)OCO2)C(=O)c1c[nH]c2cc(F)ccc12,,31.1,> 100,,36.3,> 100,> 100,19.6,12.1,5.19,3.26,3520,44.6,3230,2850,38.3,2600,670
NNC(=O)N/N=C1\C(=O)N(c2nccs2)C(=O)C(=O)C1c1nc2ccccc2s1 (stereo not drawn),> 100,> 100,> 100,88.5,> 100,> 100,> 100,,> 100,,,,,,,,,
CN1CCN(Cc2ccc(NC(=O)c3cncc(C#Cc4cnn5ccccc45)c3)cc2C(F)(F)F)CC1,,2.02,1.98,,1.25,3.85,3.66,2.82,1.81,0.891,0.402,1170,3.95,518,322,0.825,893,818
OC1CCC[C@@H]1Sc1ccccc1 (stereo partly drawn),> 100,> 100,> 100,,> 100,> 100,> 100,> 100,> 100,,,,,,,,,
COc1ccc(/C=C2\CC(C)CC3C2=NN(c2ccccc2)C3c2ccc(OC)c(OC)c2)cc1OC (stereo not drawn),,> 100,12.4,,24.9,14.5,4.38,12.4,18.5,8.8,3.09,4170,> 100,4460,2820,3.45,3400,1980
CC(=O)ON(C(C)=O)C1C(COC(c2ccccc2)(c2ccccc2)c2ccccc2)OC2OC3(CCCC3)OC21 (stereo not drawn),,> 100,> 100,> 100,> 100,> 100,> 100,> 100,> 100,,,,,,,,,
COc1ccc(NC(=O)CCc2cc(C(C)(C)C)n[nH]2)cc1,> 100,> 100,> 100,> 100,> 100,> 100,> 100,> 100,> 100,,,,,,,,,
COc1cc(/C=C\c2ccc(OC(C)=O)cc2)cc(OC)c1OC,> 100,> 100,> 100,,,> 100,,> 100,6.93,,,,,,,,,
CN(O)C(=S)c1ccccc1,> 23,> 33.1,18.3,> 100,63.1,> 55.4,37.6,,> 100,,,,> 100,,,,,
O=C(Cn1c(C(=O)c2ccccc2)nc2ccccc21)c1ccc(F)cc1,,> 74,> 76,,> 100,> 100,> 100,,> 100,17.4,12,> 48700,> 100,16000,1210,> 30.7,10500,3560
O=c1c(-c2ccc(O)cc2)coc2cc(OC3OC(CO)C(O)C(O)C3O)cc(O)c12 (stereo not drawn),,> 100,> 100,,> 100,> 100,> 100,> 100,> 100,> 100,> 10,,> 100,,> 10000,,> 10000,
CC1=NN(C(=O)c2ccc(Cl)cc2)C(=O)/C1=C/c1ccco1,> 100,> 100,> 100,,> 100,> 100,> 100,,,,,,,,,,,
Cc1ccc(/C=C(\C#N)c2ccccc2)cc1,> 100,> 100,> 100,> 100,> 100,> 100,> 100,> 100,> 100,,,,,,,,,
CC[C@@H](C)Nc1cc(C(=O)NC2CC3CCC(C2)N3c2ccc(C(=O)C3CC3)cn2)c(C)cc1C(N)=O (stereo partly drawn),,19,> 54.2,,> 100,> 100,> 100,> 47.6,> 100,0.0661,0.0299,66.3,> 62.9,67.9,18.9,0.052,192,31.7
CCCCCCCCCCCCCC(=O)OCC1OC(n2cc(F)c(=O)[nH]c2=O)C(N)C(OC(=O)CCCCCCCCCCCCC)C1O (stereo not drawn),> 100,> 100,> 100,,> 100,> 100,> 100,> 100,> 100,,,,,,,,,
